Publication PMC8745332, “Synthesis, Molecular Docking and Biological Characterization of Pyrazine Linked 2-Aminobenzamides as New Class I Selective Histone Deacetylase (HDAC) Inhibitors with Anti-Leukemic Activity” (International Journal of Molecular Sciences, 2021)
Where two headings read alike, the source gives them in different places.

How the values were obtained:
human HDAC1 = molecular target: T1, human HDAC1 (Homo sapiens, UniProt Q13547); experiment: In vitro HDAC1 inhibition assay, fluorogenic p53 peptide Ac-RHKK(Acetyl)-AMC; format: biochemical; conditions: 10 nM HDAC1, 20 µM substrate, 90 min, 37 °C
T1 construct: purchased ENZO Life Sciences AG (Lausen, CH)
Protocol: (§1) Recombinant human HDAC1, HDAC2, and HDAC3/NCOR1 were purchased from ENZO Life Sciences AG (Lausen, CH). Recombinant human HDAC 4, HDAC5, HDAC7, HDAC9 and HDAC11 were produced by Barinka lab in Prague, as described before. Recombinant human HDAC8 was produced by Romier et al. (IGBMC, Univ. Strasbourg), as described in [55].
(§2) The in vitro testing on recombinant HDACs 1-3 were performed with a fluorogenic peptide derived from p53 (Ac-RHKK(Acetyl)-AMC). The measurements were performed in an assay buffer (50 mM Hepes, 150 mM NaCl, 5 mM MgCl2, 1 mM TCEP and 0.2 mg/mL BSA, pH 7.4 adjusted with NaOH) at 37 °C. Inhibitors at different concentrations were incubated with 10 nM HDAC1, 3 nM HDAC2 or 3 nM HDAC3 (final concentration) for at least 5 min. The reaction was started with the addition of the fluorogenic substrate (20 µM final concentration) and incubated for 30 min for HDAC2 and HDAC3 and 90 min for HDAC1. The reaction was stopped with a solution of 1 mg/mL trypsin and 20 µM SAHA in 1 mM HCl and incubated for 1 h at 37 °C. […] The received fluorescence intensities were normalized with uninhibited reaction as 100% and the reaction without enzyme as 0%. A nonlinear regression analysis was done to determine the IC50 value.

human HDAC3/NCOR1 = molecular target: T2, human HDAC3/NCOR1 (Homo sapiens, UniProt O15379); experiment: In vitro HDAC3 inhibition assay, fluorogenic p53 peptide Ac-RHKK(Acetyl)-AMC; format: biochemical
T2 construct: purchased ENZO Life Sciences AG (Lausen, CH)
Protocol: as §1, §2

human HDAC5 = molecular target: T3, human HDAC5 (Homo sapiens, UniProt Q9UQL6); experiment: HDAC5 dose response, substrate Abz-SRGGK(thio-TFA)FFRR-NH2; format: biochemical
T3 construct: made in house
Protocol: as §1
(§3) The determination of dose response curves for HDAC4, 5, 7 and 9 was performed as previously described with compound 4 as substrate (Abz-SRGGK(thio-TFA)FFRR-NH2). The substrate concentration was 50 µM and the enzyme concentration was 10 nM for HDAC4 and HDAC5, 5 nM for HDAC7 and 20 nM for HDAC9. HDAC11 inhibition assay was performed as described before. The fluorescence intensity was recorded with an Envision 2104 Multilabel Plate Reader (PerkinElmer, Waltham, MA) with an excitation wavelength of 330 ± 75 nm and an emission wavelength of 430 ± 8 nm.

HDAC6 = molecular target: T4, HDAC6 (Homo sapiens, UniProt Q9UBN7); experiment: HDAC6 inhibition (HDAC subtype panel); format: biochemical
T4 construct: made in house
T4 sequence (Q9UBN7 1-1215): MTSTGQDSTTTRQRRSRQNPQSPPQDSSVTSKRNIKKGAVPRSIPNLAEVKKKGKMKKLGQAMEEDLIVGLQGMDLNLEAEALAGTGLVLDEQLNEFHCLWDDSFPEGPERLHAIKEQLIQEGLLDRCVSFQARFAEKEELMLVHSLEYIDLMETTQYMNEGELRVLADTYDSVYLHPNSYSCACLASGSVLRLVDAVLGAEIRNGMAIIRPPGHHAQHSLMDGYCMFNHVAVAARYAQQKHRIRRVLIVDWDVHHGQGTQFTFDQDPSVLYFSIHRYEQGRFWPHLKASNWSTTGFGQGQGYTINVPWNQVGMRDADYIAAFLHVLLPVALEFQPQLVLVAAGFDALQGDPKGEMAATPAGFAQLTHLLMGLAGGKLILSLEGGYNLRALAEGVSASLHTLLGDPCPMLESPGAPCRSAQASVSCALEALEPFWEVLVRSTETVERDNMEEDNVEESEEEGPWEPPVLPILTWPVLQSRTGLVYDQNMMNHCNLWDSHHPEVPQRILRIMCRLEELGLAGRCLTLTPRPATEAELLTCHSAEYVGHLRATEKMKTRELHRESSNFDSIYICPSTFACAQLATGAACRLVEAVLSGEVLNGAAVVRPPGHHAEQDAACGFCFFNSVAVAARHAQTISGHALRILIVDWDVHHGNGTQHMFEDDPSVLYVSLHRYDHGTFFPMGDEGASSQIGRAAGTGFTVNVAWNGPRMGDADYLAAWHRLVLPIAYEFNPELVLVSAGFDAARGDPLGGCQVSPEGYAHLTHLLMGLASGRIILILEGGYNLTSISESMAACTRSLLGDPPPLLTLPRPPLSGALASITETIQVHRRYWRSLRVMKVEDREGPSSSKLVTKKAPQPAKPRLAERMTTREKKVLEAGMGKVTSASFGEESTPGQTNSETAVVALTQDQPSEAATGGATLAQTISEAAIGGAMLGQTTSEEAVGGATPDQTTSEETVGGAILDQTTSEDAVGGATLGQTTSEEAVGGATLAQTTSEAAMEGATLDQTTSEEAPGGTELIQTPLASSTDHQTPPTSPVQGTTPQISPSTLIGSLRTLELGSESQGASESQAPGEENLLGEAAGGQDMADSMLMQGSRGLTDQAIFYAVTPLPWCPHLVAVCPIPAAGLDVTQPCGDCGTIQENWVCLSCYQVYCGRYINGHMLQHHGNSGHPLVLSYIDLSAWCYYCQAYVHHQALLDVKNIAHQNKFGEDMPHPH

human HDAC9 = molecular target: T5, human HDAC9 (Homo sapiens, UniProt Q9UKV0); experiment: HDAC9 dose response, substrate Abz-SRGGK(thio-TFA)FFRR-NH2; format: biochemical
T5 construct: made in house
Protocol: as §1, §3

MV4-11 cells = experiment: Apoptosis in MV4-11 cells, annexin-V-FITC/PI flow cytometry; format: cell-based, human; conditions: for induction of early and late apoptosis: 0.5 µM, 48 h; for IC50: Homo sapiens
Protocol: (§4) We measured the induction of early (increased exposure of phosphatidylserine on the cell surface and therefore positive staining for annexin-V-FITC) and late apoptosis (positivity for annexin-V and accumulation of propidium iodide, PI) by flow cytometry.
(§5) All leukemic cells were kept in RPMI-1640 medium supplemented with 10% FBS and 1%penicillin/streptomycin (Sigma-Aldrich, Taufkirchen, Germany) under standard culture conditions at 37 °C and a 5% CO2 humidified atmosphere. Cells were authenticated as mentioned by us.

MOLM-13 cells = experiment: Apoptosis in MOLM-13 cells, annexin-V/PI flow cytometry; format: cell-based, human; conditions: for IC50: Homo sapiens
Protocol: as §4, §5

MV4-11 and MOLM-13 cells = experiment: Immunoblot of acetylated histone H3 and cleaved caspase-3; format: cell-based, human; conditions: MV4-11 and MOLM-13 cells, 0.25, 0.5, 1 µM, 24 h
Protocol: (C,D) The same experiments were conducted with MOLM-13 cells. (E) IC50 values were determined for 19f. (F) Immunoblot was done with the stated antibodies and lysates of MV4-11 and MOLM-13 cells that were incubated with the HDACi for 24 h. […] Graphs show representatives of three independent experiments.

T5 sequence (Q9UKV0 whole entry): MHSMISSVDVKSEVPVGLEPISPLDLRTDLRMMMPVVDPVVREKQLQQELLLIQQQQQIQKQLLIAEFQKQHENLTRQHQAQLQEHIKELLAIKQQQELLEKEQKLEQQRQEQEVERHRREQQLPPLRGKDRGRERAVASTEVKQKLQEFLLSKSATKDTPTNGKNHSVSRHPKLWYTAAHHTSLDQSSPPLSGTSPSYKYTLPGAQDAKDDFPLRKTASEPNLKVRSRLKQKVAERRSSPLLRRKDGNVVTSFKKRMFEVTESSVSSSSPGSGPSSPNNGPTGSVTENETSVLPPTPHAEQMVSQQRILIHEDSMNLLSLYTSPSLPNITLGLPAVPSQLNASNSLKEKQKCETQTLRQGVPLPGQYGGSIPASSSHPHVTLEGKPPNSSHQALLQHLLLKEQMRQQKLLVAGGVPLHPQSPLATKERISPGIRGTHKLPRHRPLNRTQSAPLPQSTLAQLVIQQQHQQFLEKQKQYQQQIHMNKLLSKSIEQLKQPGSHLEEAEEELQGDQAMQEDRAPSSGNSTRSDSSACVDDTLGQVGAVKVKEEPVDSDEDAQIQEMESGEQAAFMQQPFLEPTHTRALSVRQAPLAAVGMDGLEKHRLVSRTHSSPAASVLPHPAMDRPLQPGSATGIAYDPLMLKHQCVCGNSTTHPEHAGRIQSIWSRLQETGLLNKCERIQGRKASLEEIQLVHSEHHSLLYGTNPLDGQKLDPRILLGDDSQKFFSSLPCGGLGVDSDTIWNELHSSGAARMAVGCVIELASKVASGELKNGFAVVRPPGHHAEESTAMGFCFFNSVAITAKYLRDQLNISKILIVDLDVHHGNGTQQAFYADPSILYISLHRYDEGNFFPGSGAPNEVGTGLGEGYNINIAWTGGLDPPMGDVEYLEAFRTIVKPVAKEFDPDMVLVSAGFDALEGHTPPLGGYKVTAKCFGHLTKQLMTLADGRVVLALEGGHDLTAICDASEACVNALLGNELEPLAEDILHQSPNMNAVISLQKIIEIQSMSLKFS
T1 sequence (Q13547 whole entry): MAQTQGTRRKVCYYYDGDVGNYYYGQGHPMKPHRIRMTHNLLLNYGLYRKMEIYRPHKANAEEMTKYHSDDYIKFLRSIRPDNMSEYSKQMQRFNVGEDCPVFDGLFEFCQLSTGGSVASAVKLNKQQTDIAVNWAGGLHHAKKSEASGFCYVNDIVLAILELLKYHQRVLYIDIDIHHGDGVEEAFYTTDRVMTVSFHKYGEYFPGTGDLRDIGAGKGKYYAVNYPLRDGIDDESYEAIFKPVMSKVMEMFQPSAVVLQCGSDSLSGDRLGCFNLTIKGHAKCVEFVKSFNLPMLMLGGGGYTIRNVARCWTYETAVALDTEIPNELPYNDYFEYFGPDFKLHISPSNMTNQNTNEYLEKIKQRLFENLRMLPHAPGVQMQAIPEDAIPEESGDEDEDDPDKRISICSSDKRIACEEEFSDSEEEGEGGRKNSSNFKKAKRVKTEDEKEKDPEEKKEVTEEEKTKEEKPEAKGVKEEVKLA
T2 sequence (O15379 whole entry): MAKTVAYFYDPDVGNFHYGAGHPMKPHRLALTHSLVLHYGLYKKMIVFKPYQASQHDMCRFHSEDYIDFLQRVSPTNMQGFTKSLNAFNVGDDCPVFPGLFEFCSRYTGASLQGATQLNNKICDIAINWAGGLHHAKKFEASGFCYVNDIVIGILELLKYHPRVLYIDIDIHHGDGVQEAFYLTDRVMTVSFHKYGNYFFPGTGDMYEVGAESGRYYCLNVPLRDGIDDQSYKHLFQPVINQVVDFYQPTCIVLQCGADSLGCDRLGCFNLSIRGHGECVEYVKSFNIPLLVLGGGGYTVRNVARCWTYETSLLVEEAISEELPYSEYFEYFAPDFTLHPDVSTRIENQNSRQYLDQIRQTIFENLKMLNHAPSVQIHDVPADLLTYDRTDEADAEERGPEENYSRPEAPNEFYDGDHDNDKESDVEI
T2 sequence (O75376 395-489 partner limits assumed): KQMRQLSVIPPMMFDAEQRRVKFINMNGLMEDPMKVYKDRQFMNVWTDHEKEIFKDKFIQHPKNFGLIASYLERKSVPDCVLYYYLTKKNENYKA
T3 sequence (Q9UQL6 whole entry): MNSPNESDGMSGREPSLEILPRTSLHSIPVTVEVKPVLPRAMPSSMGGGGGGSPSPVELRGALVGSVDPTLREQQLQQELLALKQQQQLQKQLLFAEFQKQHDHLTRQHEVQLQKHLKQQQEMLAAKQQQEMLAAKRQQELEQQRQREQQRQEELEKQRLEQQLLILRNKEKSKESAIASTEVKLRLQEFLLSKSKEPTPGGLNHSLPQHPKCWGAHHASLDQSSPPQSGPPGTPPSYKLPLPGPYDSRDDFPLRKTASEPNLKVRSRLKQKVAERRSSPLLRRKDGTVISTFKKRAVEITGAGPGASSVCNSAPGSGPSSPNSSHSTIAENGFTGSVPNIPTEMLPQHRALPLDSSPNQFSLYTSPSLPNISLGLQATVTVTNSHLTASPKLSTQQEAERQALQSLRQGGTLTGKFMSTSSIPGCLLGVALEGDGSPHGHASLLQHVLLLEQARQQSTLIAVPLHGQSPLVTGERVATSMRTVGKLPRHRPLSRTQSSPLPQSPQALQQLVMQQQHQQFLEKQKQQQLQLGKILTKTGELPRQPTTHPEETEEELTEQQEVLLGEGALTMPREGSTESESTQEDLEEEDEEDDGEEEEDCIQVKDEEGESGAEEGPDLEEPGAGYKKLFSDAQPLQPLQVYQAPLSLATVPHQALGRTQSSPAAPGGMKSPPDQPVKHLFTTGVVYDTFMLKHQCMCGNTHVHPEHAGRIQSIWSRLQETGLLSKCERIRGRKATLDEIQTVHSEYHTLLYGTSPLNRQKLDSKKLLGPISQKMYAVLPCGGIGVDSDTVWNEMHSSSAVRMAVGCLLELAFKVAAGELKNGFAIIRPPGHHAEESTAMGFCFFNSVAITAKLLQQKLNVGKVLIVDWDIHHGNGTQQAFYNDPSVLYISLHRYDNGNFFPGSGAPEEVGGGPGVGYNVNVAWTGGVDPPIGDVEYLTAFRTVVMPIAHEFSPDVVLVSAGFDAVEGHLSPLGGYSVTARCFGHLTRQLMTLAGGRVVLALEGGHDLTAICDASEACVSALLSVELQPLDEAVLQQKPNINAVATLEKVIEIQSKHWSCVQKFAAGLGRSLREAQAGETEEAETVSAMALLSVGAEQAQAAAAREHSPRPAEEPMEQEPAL

| SMILES | IC50 (human HDAC1) [µM] | inhibition at 1 µM (human HDAC3/NCOR1; read-out: HDAC3 % inhibition @ 1 µM) [%] | IC50 (human HDAC5) [µM] | IC50 (HDAC6) [µM] | IC50 (human HDAC9) [µM] | induction of early and late apoptosis (MV4-11 cells; MV4-11 cells) | IC50 (human HDAC3/NCOR1; 3 nM HDAC3, 20 µM substrate, 30 min, 37 °C) [µM] | IC50 (MV4-11 cells; MV4-11, 48 h, read-out: IC50 (apoptosis, annexin-V/PI)) [nM] | IC50 (MV4-11 cells; MV4-11 cells, 24 h, annexin-V/PI, read-out: IC50 for apoptosis induction) [nM] | IC50 (MV4-11 cells; MV4-11 cells, after 48 h, read-out: IC50 values for growth inhibition) [nM] | fold more effective than MS-275 (apoptosis induction) (MV4-11 cells; MV4-11 cells, versus MS-275) | IC50 (MOLM-13 cells; MOLM-13, 48 h, read-out: IC50 (apoptosis, annexin-V/PI)) [nM] | IC50 (MOLM-13 cells; MOLM-13 cells, 24 h, annexin-V/PI, read-out: IC50 for apoptosis induction) [nM] | IC50 (MOLM-13 cells; MOLM-13 cells, after 48 h, read-out: IC50 values for growth inhibition) [nM] | fold higher potency than MS-275 (apoptosis induction) (MOLM-13 cells; MOLM-13 cells, versus MS-275) [fold] | accumulation of acetylated histone H3 (immunoblot) (MV4-11 and MOLM-13 cells) |
| --- | --- | --- | --- | --- | --- | --- | --- | --- | --- | --- | --- | --- | --- | --- | --- | --- |
| Cn1cc(CCN2CCN(c3cnc(C(=O)Nc4cc(-c5cccs5)ccc4N)cn3)CC2)c2ccccc21 [21a, N-(2-Amino-5-(thiophen-2-yl)phenyl)-5-(4-(2-(1-methyl-1H-indol-3-yl)ethyl)piperazin-1-yl)pyrazine-2-carboxamide] | 0.26 ± 0.01 | 0 | > 20 | > 20 | > 20 | slightly increased the number of MV4-11 cells in late apoptosis | – | – | – | – | – | – | – | – | – | – |
| Nc1ccccc1NC(=O)c1cnc(N2CCN(Cc3c[nH]c4ccccc34)CC2)cn1 [19f, 5-(4-((1H-indol-3-yl)methyl)piperazin-1-yl)-N-(2-aminophenyl)pyrazine-2-carboxamide] | 0.13 ± 0.01 | – | > 20 | > 20 | > 20 | early and late apoptosis in nearly the whole MV4-11 cell population | 0.31 ± 0.01 | 194 | 255 | ~300 | at least 4 fold | 318 | 397 | ~300 | 4 | triggered the expected accumulation of acetylated histone H3 dose-dependently and more potently than MS-275 did |
